One data set relates to aberrant crypts (AC). Briefly: Inhibition of DMH-induced aberrant crypt (AC) formation in colon. Type of data set: in vivo, Female CF1 mice. To be noted: high dose 0.04 mmol/kg body weight, gavage, without DMH. The source says:
Precancerous lesions called aberrant crypts (AC) are used as a marker for colon carcinogenesis. Mice and rats, when exposed to colon-specific carcinogen, develop preneoplastic changes in colon crypts which leads to malignancy through dysplasia-carcinoma sequence. […] McLellan et al., Cancer Res. 48:6183-6186 (1988); McLellan et al., Cancer Res. 48:2311-2315 (1988).
The effect of colon-specific carcinogenesis is typically seen in the induction of AC formation in less than two weeks. AC formation is dose dependent and can be quantitated without elaborate instrumentation. In view of the short time-frame required to get quantifiable results, this bio-assay is a useful prescreening tool for the evaluation of chemopreventative efficacy of compounds that are effective against colon cancer. The protocol for aberrant crypts is shown below:
Female CF1 mice, 3 weeks of age, were purchased from Harlan Sprague-Dawley, Indianapolis, 1N. They were housed, 5 mice per cage, in temperature and humidity-controlled animal quarters with 12 hours light/dark cycle and fed AIN 76A semipurified diet until the ent of the experiment. Water was given ad libitim. The animals were separated into experimental and control groups. The test compounds 0.03-0.04 mmol/kg body weight dissolved in 0.3 mL corn oil, were given by gavage one per day for 8 days. One hour after the inhibitors administration on the 4th and 8th days, 0.4 mg of DMH in 0.2 mL of 0.001 M EDTA, adjusted to pH 6.5 with sodium bicarbonate, was given by gavage. Starting on the 9th day, the inhibitors were given once every other day for an additional 3 weeks. This regimen of inhibitor administration ensures the coverage both the initiation and post initiation periods of carcinogen exposure.
At the end of the 3 week period, the animals were sacrificed and the colons removed. The starting and terminating weights of the animals were recorded. The procedures for the determination of aberrant crypts were those reported by Bird (Cancer Letters 37:147-151 (1987)). The mouse colon including the caecum was removed, rinsed with PBS, and opened longitudinally. The colon contents was removed by washing with PBS. The colon was spread mucosal side up on a piece of filter paper and fixed in buffered formalin overnight. It was then stained with 0.2% methylene blue in PBS for 60 min. The AC foci was read under light microscope. The AC are topographically distinguished by their increased size, increased pericryptal zone, and thicker and deeply stained epithelial lining compared to normal crypts. The number of foci and AC in the colorectal and caecal parts of the colon were recorded separately. The significance of the data was determined by the analysis of variance method. The significance of the incidence of aberrant crypts bearing animals was analyzed by the X^2 test. The aberrant crypts were examined histologically to verify the dysplastic nature of the changes in animals treated with carcinogens and those treated with carcinogens and inhibitors.

A further data set has as its system GSH. Briefly: Glutathione (GSH) concentration in tissues of treated mice, HPLC. Type of data set: in vivo, Female A/J mice. To be noted: for Ratio Test/con (GSH): gavage; for GSH conc.: gavage in corn oil. The method, then: GSH was quantitated by modification of the procedure Siller-Cepeda et al. Plant Cell Physiol. 32:1179-1185 (1991). Aliquots of tissue homogenates were mixed with equal volumes of 20% PCA containing 2 mM BPDS. Vortex, centrifuge at 7800×g for 15 minutes at 4° C. and 250 μl supernatant transferred into a microfuge tube containing 25 μl of γ-glu-glu as internal standard. The samples were carboxymethylated with 25 μl of 100 mM iodoacetic acid dissolved in 0.2 mM m-cresol purple sodium salt solution. The pH of the solution was adjusted to 9-10 by adding 350 μl of KOH (2M)-KHCO3 (2.4 M) mixture and incubated in the dark for 15 minutes. After carboxymethylation, the samples were derivatized with 500 μl of 1% dinitrofluorobenzene (DNFB) and kept in the dark at 4° C. overnight. The samples were centrifuged at 13,000×g for 15 minutes, filtered through 0.2 μm filter, and were analyzed with a SHIMADZU two-pump gradient HPLC system. Samples were injected by a SHIMADZU SIL-10AV Autoinjector onto a Varian 3-aminopropyl MICROSORB-MV column (4.6×250 mm) operated at ambient temperature with a flow rate of 1 ml/min. Absorbance of the dinitrophenyl derivatives was monitored at 365 nm. The amount of GSH was calculated from a standard curve using γ-glu-glu as internal standard.

For data set [1], the system named is UDP-Glucuronosyltransferase (UDP-GT). Description: UDP-glucuronosyltransferase (UDP-GT) activity in liver microsomes of treated mice, o-aminophenol substrate. The data set is classed as in vivo, Female A/J mice. Conditions: for Ratio Test/con (UDP-GT): gavage; for UDP-GT activity (column head prints GSH conc.): gavage in corn oil. The method, then: Microsomal samples were assayed for enzymatic conjugation by modifying the procedure of Zakim et al., Methods of Biochemical Analysis, ed. David Glick, 21:1-37, (1973). using o-aminophenol as the substrate. The complete assay solution contains, in a total volume of 500 μl, 0.25 M phosphate buffer (pH 7.6), 0.002 M o-aminophenol, 0.05 M UDPGA, 0.125 M magnesium chloride and 100 μl microsomes. The mixture was incubated for 30 minutes. Reactions were stopped by the addition of 500 μl of TCA-sodium phosphate reagent. The precipitated protein was removed, 100 μl of 0.05% sodium nitrite was added to 950 μl of the supernatent solution and allowed to stand for 5 minutes. 100 μl of 0.5% ammonium sulfamate was added, after 5 minutes. 100 μl of 0.12% N-(-1-naphthyl)ethylenediamine dihydrochloride was added and incubated for 2 hours in the dark; and the difference in the optical density between the blanks and the samples were recorded at 555 nm in a Beckman model DU65 UV-VIS spectrophotometer. The UDP-GT activity was calculated using the extinction coefficient 29 mM-1 cm-1 for the coupled product.
In general terms: Liver microsomes are a subcellular fraction often used to study metabolism.

In data set [2] the test system is Glutathione S-Transferase. Description: Glutathione S-transferase (GST) activity in tissue cytosol of treated mice, CDNB substrate. Type of data set: in vivo, Female A/J mice. Conditions: for Ratio Test/con (GST): gavage; for GST act.: gavage in corn oil. The protocol:
The activity of cytosolic was assayed according to the method of Habig et al. using 1-chloro-2,4-dinitrobenzene (CDNB) as the substrate. Habig et al, J. Biol. Chem. 249:7130-7139 (1974). The complete solution contains, in a total volume of 2.0 mL, 0.1 M phosphate buffer, pH 6.5, 5 mM glutathione, 1 mM CDNB, and 20 μL of the cytosol. The reaction was monitored at 340 nm in a Beckman Model DU65 UV-VIS spectrophotometer. Assays were performed at 30° C. Complete assay mixture without the cytosolic enzyme was used as the reference blank. Data as analyzed by the Student's “t” test and P values were obtained in comparison to the control.

[3] abbreviates: liver, dose 0.02 mmol/Kg body weight.
Setting [4] is: liver, dose 0.04 mmol/Kg body weight.
The mark [5] stands for this setting: small intestinal mucosa, dose 0.02 mmol/Kg body weight.
The mark [6] stands for this setting: small intestinal mucosa, dose 0.04 mmol/Kg body weight.
Where [7] appears, read: colon, dose 0.02 mmol/Kg body weight.
Setting [8] is: colon, dose 0.04 mmol/Kg body weight.
Setting [9] is: forestomach, dose 0.02 mmol/Kg body weight.
[10] abbreviates: forestomach, dose 0.04 mmol/Kg body weight.
The mark [11] stands for this setting: lung, dose 0.02 mmol/Kg body weight.
Setting [12] is: lung, dose 0.04 mmol/Kg body weight.

The term melting point denotes the temperature of the solid-liquid transition.

Marks after values point to notes of the source that are not given here.

`N#C[Se]C([Se]C#N)c1cccs1` [(1) TMSC, 2-thienyl methylene selenocyanate] had a melting point of 48 to 50 °C.
With `[Se]=C=NCc1ccc(CN=C=[Se])s1` [(6) TDMISC, thienyl-2,5-di-methylene isoselenocyanate], the “% animals” value in the data set with aberrant crypts (AC) was found to be 0.0%. In addition, in the data set on aberrant crypts (AC), the AC/Colon came to 0.00. In the data set with aberrant crypts (AC), this molecule displayed an AC/Foci of 0.00. In the data set with aberrant crypts (AC), this molecule showed an ACF/Colon of 0.00. The “Total AC” value in the data set on aberrant crypts (AC) worked out at 0. Moreover, the “Total ACF” value in the data set on aberrant crypts (AC) is 0. Further, the “Ratio Test/con (GSH)” value in the data set with GSH (setting [3]) is 0.95; in the data set with GSH (setting [4]) it was 1.49; in the data set on GSH (setting [5]), 1.07; with GSH (setting [6]) it was 1.76. The GSH conc. in the data set with GSH (setting [3]) was 3.38 ± 1.11 μmol/gm tissue weight; in the data set with GSH (setting [4]), 5.29 ± 1.09 μmol/gm tissue weight; in the data set with GSH (setting [5]), 2.26 ± 1.87 μmol/gm tissue weight; in the data set with GSH (setting [6]), 3.71 ± 0.31^d μmol/gm tissue weight. Besides, the “Ratio Test/con (UDP-GT)” value is recorded as 1.50 in data set [1] (dose 0.02 mmol/Kg body weight) and 1.49 in data set [1] (dose 0.04 mmol/Kg body weight). Also, the entries for the “UDP-GT activity (column head prints GSH conc.)” value in data set [1] (dose 0.02 mmol/Kg body weight) and in data set [1] (dose 0.04 mmol/Kg body weight) were 6.08 ± 0.76 ^d nmol/min/mg protein and 7.98 ± 2.49 nmol/min/mg protein, respectively. Moreover, the “Ratio Test/con (GST)” value is 1.12 in data set [2] (setting [7]); 1.14 in data set [2] (setting [8]); 0.93 in data set [2] (setting [9]); 1.11 in data set [2] (setting [10]); 1.90 in data set [2] (setting [3]); 2.53 in data set [2] (setting [4]). Besides, the “Ratio Test/con (GST)” value in data set [2] (setting [11]) is 1.29; in data set [2] (setting [12]), 1.73; in data set [2] (setting [5]), 2.45; in data set [2] (setting [6]), 2.41. Moreover, the GST act. is given as 0.73 ± 0.026 ^g μmol/min mg protein in data set [2] (setting [7]); 0.74 ± 0.04 ^f μmol/min mg protein in data set [2] (setting [8]); 1.03 ± 0.20 μmol/min mg protein in data set [2] (setting [9]); 1.23 ± 0.35 μmol/min mg protein in data set [2] (setting [10]); 2.43 ± 0.46 ^e μmol/min mg protein in data set [2] (setting [3]); 3.24 ± 0.39 ^e μmol/min mg protein in data set [2] (setting [4]). Further, the GST act. is listed as 0.44 ± 0.04 ^f μmol/min mg protein in data set [2] (setting [11]), 0.59 ± 0.29 μmol/min mg protein in data set [2] (setting [12]), 0.54 ± 0.11 ^e μmol/min mg protein in data set [2] (setting [5]) and 0.53 ± 0.03 ^c μmol/min mg protein in data set [2] (setting [6]).
Turning to `N#C[Se]Cc1ccc(C[Se]C#N)cc1` [p-XSC, 1,4-phenylenebis(methylene)selenocyanate, reference compound], the “Ratio Test/con (GSH)” value in the data set with GSH (setting [4]) is 0.99; in the data set on GSH (setting [6]) it was 0.91. Further, the GSH conc. turned out to be 3.50 ± 0.75 μmol/gm tissue weight with GSH (setting [4]) and 1.93 ± 0.54 μmol/gm tissue weight with GSH (setting [6]). In addition, in the data set on GSH (tissues of A/J mice), the “increase of GSH concentration (in words)” value is given as “failed to induce a significant increase”. The “Ratio Test/con (UDP-GT)” value in data set [1] (dose 0.04 mmol/Kg body weight) was 1.88. In data set [1] (dose 0.04 mmol/Kg body weight), the “UDP-GT activity (column head prints GSH conc.)” value is 7.60 ± 2.47 ^d nmol/min/mg protein. Moreover, the “Ratio Test/con (GST)” value in data set [2] (setting [7]) worked out at 1.10; in data set [2] (setting [9]) it was 0.88; in data set [2] (setting [3]), 1.28; in data set [2] (setting [11]), 1.41; in data set [2] (setting [5]) it was 0.95. Also, the GST act. in data set [2] (setting [7]) turned out to be 0.72 ± 0.07 μmol/min mg protein; in data set [2] (setting [9]), 0.98 ± 0.27 μmol/min mg protein; in data set [2] (setting [3]) it was 1.64 ± 0.45 μmol/min mg protein; in data set [2] (setting [11]) it was 0.48 ± 0.13 μmol/min mg protein; in data set [2] (setting [5]) it was 0.21 ± 0.06 μmol/min mg protein. Moreover, the “induction of GST activity (in words)” value in data set [2] (tissues of A/J mice) is recorded as “failed to induce a significant increase”.

Source of the values: US7855232B2, “Organoselenium compound for cancer chemoprevention” (LKT Laboratories, Inc., priority 2001, dated 2010).
